In paper PMC10826971, “Evaluating protein cross-linking as a therapeutic strategy to stabilize SOD1 variants in a mouse model of familial ALS” (PLOS Biology, 2024):
Values joined by “and” are separate entries in the source; they are usually repeats but may differ in a detail not shown here. Equal values may be shown once. “Also recorded” adds a separate entry of the source.

What was measured:
SOD1^G93A = SOD1^G93A (Homo sapiens, UniProt P00441, G94A); experiment: Differential scanning fluorimetry (DSF), thermal stability; format: binding; parameters: made in house; host or cells: EGy118ΔSOD1 yeast, YEp351 expression vector; conditions: 10-fold molar excess S-XL6, 4 h 37°C; untreated 70.6°C
Sequence of SOD1^G93A (P00441 2-154 G94A limits assumed): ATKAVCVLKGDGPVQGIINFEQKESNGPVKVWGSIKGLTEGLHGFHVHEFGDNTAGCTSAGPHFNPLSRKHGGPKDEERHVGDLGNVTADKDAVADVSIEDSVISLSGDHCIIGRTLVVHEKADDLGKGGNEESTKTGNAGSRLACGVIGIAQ
Procedure: (§1) To understand how cross-linking effects SOD1 stability, we quantified changes in unfolding temperature (ΔTu, hereafter thermal stability).
(§2) The effect of cross-link formation on the thermal stability of SOD1 was determined by differential scanning fluorimetry as previously described. […] After incubation, SYPRO Orange (Invitrogen Corporation, Carlsbad, California, USA), an environmentally sensitive fluorescent dye which is quenched in an aqueous environment but becomes unquenched once it binds hydrophobic residues, was added to the reaction mixture to a final concentration of 200×. The samples were then transferred to a fast optical 96-well reaction plate (Applied Biosystem, Life Technologies Corporation, Carlsbad, California, USA) and loaded on to the real-time PCR machine (Applied Biosystem, Life Technologies Corporation, Carlsbad, California, USA) after plate was spun down to eliminate bubbles. The Melt curve template in StepOne Plus software was used to set up a method. […] The final concentration of DMSO in the reaction mixture was checked as it contributes to the denaturation of proteins. […] The background data was subtracted from the average relative fluorescence and average derivate for each temperature point, and the data were normalized before Tus were quantified by averaging the negative first derivative of relative fluorescence of all 3 runs and identifying the local minima.

wild-type SOD1 = wild-type SOD1 (Homo sapiens, UniProt P00441); experiment: as above; format: binding; parameters: made in house; host or cells: EGy118ΔSOD1 yeast, YEp351 expression vector; conditions: 10-fold molar excess S-XL6, 4 h 37°C; untreated 75.9°C
Sequence of wild-type SOD1 (P00441 2-154 limits assumed): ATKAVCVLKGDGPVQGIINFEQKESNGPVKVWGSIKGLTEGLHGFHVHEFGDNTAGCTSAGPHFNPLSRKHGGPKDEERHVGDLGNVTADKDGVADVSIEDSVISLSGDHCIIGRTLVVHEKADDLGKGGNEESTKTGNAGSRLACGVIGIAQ
Procedure: as §1, §2

[1] = test system: NSC-34 cells expressing EGFP-G93A; experiment: Determination of cells containing inclusions; format: cell-based, mouse; parameters: Inclusion Formation: unit not given here; conditions: for Inclusion Formation: G93A, 48 h, replicates
Procedure: (§3) Transfected NSC-34 cells were plated out into 96-well plates and left overnight. […] Cells were then fixed using 4% (w/v) paraformaldehyde in 1×PBS for 20 min. Plates for imaging were then processed as previously described with some changes. Cells were imaged using a DMi8 epifluorescent microscope (Leica, Germany) fitted with a Mercury Arc Lamp, a 10× 0.25NA (CAT NO) air objective and an automated stage. A software-based autofocus strategy was utilized to focus on the GFP signal within cells, with a subsequent image being taken in the DAPI channel to view Hoescht-stained nuclei. Relative focus correction was applied between channels to offset emission wavelength effects to the focal plane. Following image acquisition, images were corrected for illumination variation via a background method and processed using a combination of FIJI [66], StarDist, CellProfiler, and CellProfiler Analyst as previously described.

[2] = test system: NSC-34 cells expressing EGFP-WT-SOD1; experiment: Determination of cells containing inclusions; format: cell-based, mouse; parameters: Inclusion Formation: unit not given here; conditions: for Inclusion Formation: WT, 48 h, replicates
Procedure: as §3

## [O-][S+]1CCCCS1 (stereo not shown) [S-XL6, 1,2-dithiane-1-oxide]
SOD1^G93A
  unfolding temperature (Tu) of S-XL6 cross-linked protein: 85.0 °C
wild-type SOD1
  unfolding temperature (Tu) of S-XL6 cross-linked protein: 90.2 °C
[1]
  aggregation of EGFP-labeled G93A: did not affect
[1]; 5 uM
  Inclusion Formation: 5.34 and 6.771 and 14.6572 and 11.1111 and 8.602
[1]; 10 uM
  Inclusion Formation: 6.731 and 9.113 and 13.3487 and 16.0367 and 12.7358
[1]; 20 uM
  Inclusion Formation: 8.219 and 11.7978 and 11.4911 and 10.411 and 12.1547
[2]
  aggregation of EGFP-labeled wild-type SOD1: increased cellular aggregation; also recorded: accelerate the aggregation
[2]; 5 uM
  Inclusion Formation: 0.4215 and 0.8811 and 2.367 and 0.4188 and 0.4044
[2]; 10 uM
  Inclusion Formation: 0.8155 and 1.677 and 1.595 and 4.094 and 2.381
[2]; 20 uM
  Inclusion Formation: 9.589 and 4.535 and 7.818 and 6.78 and 6.154
